# Tests used:
# [1] = tested on: peripheral blood mononuclear cells (PBMNCs); assay: CELL TITER-GLO viability of PBMNCs; type: cell-based; conditions: cells from three donors
# Protocol: (§1) RPMI-8226 and NCI-H929 cells were cultured in RPMI-1640 supplemented with 10% fetal bovine serum, penicillin, streptomycin, and plasmocin in 5% CO2 humidified incubator. HEK-293T cells were cultured in DMEM containing 10% fetal calf serum, 10 units/mL penicillin, and 10 μg/mL streptomycin in a 7% CO2 humidified incubator. Viability of multiple myeloma cells was measured with ALAMAR BLUE mitochondrial dye conversion assay. Viability of peripheral blood mononuclear cells (PBMNCs) was measured using CELL TITER-GLO luminescent cell viability assay (Promega), which is based on quantification of ATP present in the cells. Caspase-3/7 activity was measured using APO-ONE 3/7 homogeneous assay (Promega).
# [2] = molecular target: T1, chymotrypsin-like site of 26S proteasomes (Oryctolagus cuniculus, UniProt G1T4Q9); assay: Inhibition of purified 26S proteasomes, substrate Suc-LLVY-amc; type: biochemical, rabbit; conditions: >>30 no inhibition at 30 μM, >30 inhibition between 10 and 50% at 30 μM, read-out: IC50 for sites in 26S proteasomes: Chym-L
# T1 sequence (G1T4Q9 1-263): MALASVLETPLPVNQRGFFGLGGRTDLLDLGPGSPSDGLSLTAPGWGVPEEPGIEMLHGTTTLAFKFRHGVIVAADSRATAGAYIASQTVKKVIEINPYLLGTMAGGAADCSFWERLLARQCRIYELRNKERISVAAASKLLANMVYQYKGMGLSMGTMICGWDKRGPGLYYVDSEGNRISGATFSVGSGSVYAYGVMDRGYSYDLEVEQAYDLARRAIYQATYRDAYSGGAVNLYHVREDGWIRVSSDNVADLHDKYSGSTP
# [3] = tested on: MM cell lines NCI-H929, MM1.R, RPMI-8226, KMS-18, KMS-12-BM; assay: ALAMAR BLUE viability, panel of MM cell lines; type: cell-based
# Protocol: as §1
# In a parallel set of experiments, it was tested whether co-inhibiting caspase-like and trypsin-like sites suffices to induce cytotoxicity in the absence of inhibition of the chymotrypsin-like sites and whether such dual inhibition is a stronger sensitizer to LU-005 than inhibition of the trypsin-like sites alone. Four additional myeloma cell lines, MM1.R, RPMI-8226, KMS-18, and KMS-12-BM, were selected for these experiments. These cell lines vary up to 40-fold in their sensitivity to bortezomib and NC-005 (Britton, et al. (2009) supra). In all experiments, NC-022 was used at a concentration that inhibited trypsin-like activity by more than 90% after a 6-hour incubation.
smiles,measurement,setting,value
"Cc1c(O)cccc1C(=O)N[C@H](C(=O)N[C@@H](CO)C(=O)N[C@@H](CCCNC(=N)N)C(=O)[C@@]1(C)CO1)C(C)C [NC-022, HMB-Val-Ser-Arg-ek]",sensitization of PBMNCs to bortezomib and carfilzomib,[1],did not sensitize cells
same,IC50,[2],1700 nM
same,sensitization to LU-005 compared with NC-001,[3]; NCI-H929 and KMS-12-BM,more potent sensitizer than NC-001
same,reduction of the IC50 for LU-005,"[3]; all MM cell lines, NC-022 at concentration inhibiting trypsin-like activity >90% after 6 h",4-10 fold
same,reduction of cell viability,"[3]; continuous exposure to mixture of NC-022 and NC-001, both sites blocked by more than 90%",20-50%
same,sensitization of MM cells to LU-005,[3]; mixture of NC-001 and NC-022 after 1 hour LU-005,much stronger sensitizer than NC-022 alone
